Results as given in patent US7625897B2, “Non-nucleoside reverse transcriptase inhibitors” (Roche Palo Alto LLC, priority 2005, dated 2009).
Read-outs that look alike come from different tables or passages of the source.

Legend:
HIV-1 RT = HIV-1 RT (Human immunodeficiency virus type 1 group M subtype B, UniProt P03366); experiment: HIV Reverse Transcriptase Assay: Inhibitor IC50 determination; type: biochemical; conditions: purified recombinant enzyme, poly(rA)/oligo(dT)16 template-primer, read-out: HIV-RT IC50 RT
Protocol: HIV Reverse Transcriptase Assay: Inhibitor IC50 determination
HIV-1 RT assay was carried out in 96-well Millipore MultiScreen MADVNOB50 plates using purified recombinant enzyme and a poly(rA)/oligo(dT)16 template-primer in a total volume of 50 μL. The assay constituents were 50 mM Tris/HCl, 50 mM NaCl, 1 mM EDTA, 6 mM MgCl2, 5 μM dTTP, 0.15 μCi [^3H] dTTP, 5 μg/ml poly (rA) pre annealed to 2.5 μg/ml oligo (dT)16 and a range of inhibitor concentrations in a final concentration of 10% DMSO. Reactions were initiated by adding 4 nM HIV-1 RT and after incubation at 37° C. for 30 min, they were stopped by the addition of 50 μl ice cold 20% TCA and allowed to precipitate at 4° C. for 30 min. The precipitates were collected by applying vacuum to the plate and sequentially washing with 3×200 μl of 10% TCA and 2×200 μl 70% ethanol. Finally, the plates were dried and radioactivity counted in a Packard TopCounter after the addition of 25 μl scintillation fluid per well. IC50's were calculated by plotting % inhibition versus log10 inhibitor concentrations.

Structure (SMILES)	IC50 (HIV-1 RT; TABLE I) [nM]	melting point [°C]	IC50 (HIV-1 RT; TABLE II) [nM]
CC1CC(Cc2ccc(Cl)c(Oc3cc(Cl)cc(C#N)c3)c2F)=NNC1=O (stereo in doubt) [Compound I-22, 3-chloro-5-[6-chloro-2-fluoro-3-((S)-5-methyl-6-oxo-1,4,5,6-tetrahydro-pyridazin-3-ylmethyl)-phenoxy]-benzonitrile]	17.7	156.5 to 157.2	
CC1CC(Cc2ccc(Cl)c(Oc3cc(Cl)cc(Br)c3)c2F)=NNC1=O (stereo in doubt) [Compound I-23, (S)-6-[3-(3-Bromo-5-chloro-phenoxy)-4-chloro-2-fluoro-benzyl]-4-methyl-4,5-dihydro-2H-pyridazin-3-one]	14.3	148.2 to 151	
C[C@@H]1NC(Cc2ccc(Cl)c(Oc3cccc(Br)c3)c2)=NNC1=O [Compound I-1, (S)-3-[3-(3-Bromo-phenoxy)-4-chloro-benzyl]-5-methyl-4,5-dihydro-1H-[1,2,4]triazin-6-one]	4520		
C[C@@H]1NC(Cc2ccc(Cl)c(Oc3cc(Br)cc(Br)c3)c2F)=NNC1=O [Compound I-2, (S)-3-[4-Chloro-3-(3,5-dibromo-phenoxy)-2-fluoro-benzyl]-5-methyl4,5-dihydro-1H-[1,2,4]triazin-6-one]	165	88 to 91.5	
C[C@H]1NC(Cc2ccc(Cl)c(Oc3cc(Br)cc(Br)c3)c2F)=NNC1=O [Compound I-3, (R)-3-[4-Chloro-3-(3,5-dibromo-phenoxy)-2-fluoro-benzyl]-5-methyl-4,5-dihydro-1H-[1,2,4]triazin-6-one]	10.7	75.2 to 79.1	
CC1OC(Cc2ccc(Cl)c(Oc3cccc(Br)c3)c2)=NNC1=O (centres unmarked) [Compound I-4, 2-[3-(3-Bromo-phenoxy)-4-chloro-benzyl]-6-methyl-4H-[1,3,4]oxadiazin-5-one]	51.5		
CC1OC(Cc2ccc(Cl)c(Oc3cc(Cl)cc(Br)c3)c2F)=NNC1=O (centres unmarked) [Compound I-6, 2-[3-(3-Bromo-5-chloro-phenoxy)-4-chloro-2-fluoro-benzyl]-6-methyl-4H-[1,3,4]oxadiazin-5-one]	24.7		
CC1OC(Cc2ccc(Cl)c(Oc3cc(Br)cc(Br)c3)c2F)=NNC1=O (centres unmarked) [Compound I-7, 2-[4-Chloro-3-(3,5-dibromo-phenoxy)-2-fluoro-benzyl]-6-methyl-4H-[1,3,4]oxadiazin-5-one]	24.5	174.2 to 176.1	
CC1OC(Cc2ccc(Cl)c(Oc3cc(Cl)cc(C#N)c3)c2F)=NNC1=O (centres unmarked) [Compound I-8, 3-Chloro-5-[6-chloro-2-fluoro-3-(6-methyl-5-oxo-5,6-dihydro-4H-[1,3,4]oxadiazin-2-ylmethyl)-phenoxy]-benzonitrile]	13.6		
CC1OC(Cc2ccc(Cl)c(Oc3cc(C#N)cc(C#N)c3)c2F)=NNC1=O (centres unmarked) [Compound I-9, 5-[6-chloro-2-fluoro-3-(6-methyl-5-oxo-5,6-dihydro-4H-[1,3,4]oxadiazin-2-ylmethyl)-phenoxy]-isophthalonitrile]	40.3	60.9 to 67.7	
O=C1NN=C(Cc2ccc(Cl)c(Oc3cc(Br)cc(Br)c3)c2F)NC12CC2 [Compound I-10, 5-[4-Chloro-3-(3,5-dibromo-phenoxy)-2-fluoro-benzyl]-4,6,7-triaza-spiro[2.5]oct-5-en-8-one]	66	90 to 95	
CC1(C)OC(Cc2ccc(Cl)c(Oc3cccc(Br)c3)c2)=NNC1=O [Compound I-11, 2-[3-(3-Bromo-phenoxy)4-chloro-benzyl]-6,6-dimethyl-4H-[1,3,4]oxadiazin-5-one]	> 10000		
CCC1OC(Cc2ccc(Cl)c(Oc3cccc(Br)c3)c2)=NNC1=O (centres unmarked) [Compound I-12, 2-[3-(3-Bromo-phenoxy)-4-chloro-benzyl]-6-ethyl-4H-[1,3,4]oxadiazin-5-one]	212		
CC1(C)OC(Cc2ccc(Cl)c(Oc3cccc(C#N)c3)c2)=NNC1=O [Compound I-13, 3-[2-Chloro-5-(6,6-dimethyl-5-oxo-5,6-dihydro-4H-[1,3,4]oxadiazin-2-ylmethyl)-phenoxy]-benzonitrile]	9490	94.1 to 95.3	
CCC1OC(Cc2ccc(Cl)c(Oc3cccc(C#N)c3)c2)=NNC1=O (centres unmarked) [Compound I-14, 3-[2-Chloro-5-(6-ethyl-5-oxo-5,6-dihydro4H-[1,3,4]oxadiazin-2-ylmethyl)-phenoxy]-benzonitrile]	128		
C[C@H]1NC(Cc2ccc(Cl)c(Oc3cc(C#N)cc(C(F)F)c3)c2F)=NNC1=O [Compound I-16, 3-[6-Chloro-2-fluoro-3-((R)-5-methyl-6-oxo-1,4,5,6-tetrahydro-[1,2,4]triazin-3-ylmethyl)-phenoxy]-5-difluoromethyl-benzonitrile]	15.3		
CC[C@H]1NC(Cc2ccc(Cl)c(Oc3cc(Cl)cc(C#N)c3)c2F)=NNC1=O [Compound I-17, 3-Chloro-5-[6-chloro-3-((R)-5-ethyl-6-oxo-1,4,5,6-tetrahydro-[1,2,4]triazin-3-ylmethyl)-2-fluoro-phenoxy]-benzonitrile]	13		

Structure (SMILES)	IC50 (HIV-1 RT; TABLE I) [nM]	melting point [°C]	IC50 (HIV-1 RT; TABLE II) [nM]
C[C@@H]1NC(Cc2ccc(Cl)c(Oc3cc(Cl)cc(C#N)c3)c2F)=NNC1=O [Compound I-18, 3-Chloro-5-[6-chloro-2-fluoro-3-(5-methyl-6-oxo-1,4,5,6-tetrahydro-[1,2,4]triazin-3-ylmethyl)-phenoxy]-benzonitrile]	11.9		
Cc1ccc(CC2=NNC(=O)[C@@H](C)N2)c(F)c1Oc1cc(C#N)cc(C(F)F)c1 [Compound I-19, 3-Difluoromethyl-5-[2-fluoro-6-methyl-3-((R)-5-methyl-6-oxo-1,4,5,6-tetrahydro-[1,2,4]triazin-3-ylmethyl)-phenoxy]-benzonitrile]	18		
C[C@H]1CC(Cc2ccc(Cl)c(Oc3cccc(Br)c3)c2)=NNC1=O [Compound I-20, (S)-6-[3-(3-Bromo-phenoxy)4-chloro-benzyl]-4-methyl-4,5-dihydro-2H-pyridazin-3-one]	65.4		
C[C@H]1CC(Cc2ccc(Cl)c(Oc3cccc(C#N)c3)c2)=NNC1=O [Compound I-21, 3-[2-chloro-5-((S)-5-methyl-6-oxo-1,4,5,6-tetrahydro-pyridazin-3-ylmethyl)-phenoxy]-benzonitrile]	46.9		
O=C1CCC(Cc2ccc(Cl)c(Oc3ccccc3)c2)=NN1 [Compound I-24, 6-(4-Chloro-3-phenoxy-benzyl)-4,5-dihydro-2H-pyridazin-3-one]	2630		
C[C@H]1NC(Cc2ccc(Br)c(Oc3cc(C#N)cc(C(F)F)c3)c2F)=NNC1=O [Compound I-25, 3-[6-Bromo-2-fluoro-3-((R)-5-methyl-6-oxo-1,4,5,6-tetrahydro-[1,2,4]triazin-3-ylmethyl)-phenoxy]-5-difluoromethyl-benzonitrile]	11.7	231.5 to 233	
C[C@H]1NC(Cc2ccc(Br)c(Oc3cc(Cl)cc(C#N)c3)c2F)=NNC1=O [Compound I-26]	6.6	178.2 to 179	
CC1(C)NC(Cc2ccc(Cl)c(Oc3cc(Cl)cc(C#N)c3)c2F)=NNC1=O [Compound I-27]	7070		
N#Cc1cc(Cl)cc(Oc2c(Cl)ccc(CC3=NNC(=O)CN3)c2F)c1 [Compound I-28]	143	177.6 to 178	
N#Cc1cc(Cl)cc(Oc2c(Cl)ccc(CC3=NNC(=O)C(C(F)(F)F)N3)c2F)c1 (centres unmarked) [Compound I-29]	26.9		
N#Cc1cc(Cl)cc(Oc2c(Cl)ccc(CC3=NNC(=O)[C@@H](CO)N3)c2F)c1 [Compound I-30]	418	112.5 to 114	
Cc1nc(Cc2ccc(Cl)c(Oc3cccc(Br)c3)c2)n[nH]c1=O [II-1]			331
Cc1nc(Cc2ccc(Cl)c(Oc3cccc(C#N)c3)c2)n[nH]c1=O [II-2, 3-[2-Chloro-5-(5-methyl-6-oxo-1,6-dihydro-[1,2,4]triazin-3-ylmethyl)-phenoxy]-benzonitrile]		145.3 to 145.8	206
O=c1[nH]nc(Cc2ccc(Cl)c(Oc3cccc(Br)c3)c2)nc1-c1ccccc1 [II-3, 3-[3-(3-Bromo-phenoxy)4-chloro-benzyl]-5-phenyl-1H-[1,2,4]triazin-6-one]		59.8 to 63.9	346
Cc1nc(Cc2ccc(Cl)c(Oc3cc(Br)cc(Br)c3)c2F)n[nH]c1=O [II-4, 3-[4-Chloro-3-(3,5-dibromo-phenoxy)-2-fluoro-benzyl]-5-methyl-1H-[1,2,4]triazin-6-one]		180.9 to 183.3	137
Cc1nc(Cc2ccc(Cl)c(Oc3cc(C#N)cc(C#N)c3)c2F)n[nH]c1=O [II-5, 5-[6-chloro-2-fluoro-3-(5-methyl-6-oxo-1,6-dihydro-[1,2,4]triazin-3-ylmethyl)-phenoxy]-isophthalonitrile]		194.7 to 197.4	432
Cc1nc(Cc2ccc(Cl)c(Oc3cc(Br)cc(C#N)c3)c2F)n[nH]c1=O [II-6, 3-Bromo-5-[6-chloro-2-fluoro-3-(5-methyl-6-oxo-1,6-dihydro-[1,2,4]triazin-3-ylmethyl)-phenoxy]-benzonitrile]			32.5
